This passage reports IC50 and Activity results from ChEMBL document CHEMBL5512632, “Unlocking the potential of 1,4-naphthoquinones: A comprehensive review of their anticancer properties” (Eur J Med Chem, 2024).

≈ marks a conversion by molar mass, not a printed value.

Assay [1] concerns MDA-MB-231. Description: Antiproliferative activity against human MDA-MB-231 cells incubated for 24 hrs by CCK-8 assay. It counts as functional, cell-based. As to conditions: MDA-MB-231, 24 h. For orientation: Tetrazolium assays rely on reduction of a dye to a coloured formazan, in cell work by metabolically active cells.
Assay [2] in a line: Antiproliferative activity against human SUM1315MO2 cells incubated for 24 hrs by CCK-8 assay. Type of assay: functional, cell-based. As to conditions: SUM1315MO2, 24 h.
The subject of assay [3] is MCF7. Description: Antiproliferative activity against human MCF7 cells incubated for 24 hrs by CCK-8 assay. As to conditions: MCF7, 24 h. It counts as functional, cell-based.
The subject of another assay is MDA-MB-453. Description: Antiproliferative activity against human MDA-MB-453 cells incubated for 24 hrs by CCK-8 assay. Type of assay: functional, cell-based. Conditions: MDA-MB-453, 24 h.
Assay [4] has as its system MDA-MB-231. The assay can be described thus: Antitumor activity against human MDA-MB-231 cells xenografted in mouse assessed as reduction in tumor volume. It counts as functional.
A further assay deals with HCT-15. The assay can be described thus: Cytotoxicity against human HCT-15 cells assessed as reduction in cell viability incubated for 72 hrs by MTT reagent based microplate reader assay. Type of assay: functional. As to conditions: HCT-15, 72 h.
The test system of another assay is K562. Description: Cytotoxicity against human K562 cells assessed as reduction in cell viability incubated for 72 hrs by MTT reagent based microplate reader assay. Type of assay: functional. As to conditions: K562, 72 h.
Assay [5] concerns HCT-116. The assay can be described thus: Cytotoxicity against human HCT-116 cells assessed as reduction in cell viability incubated for 72 hrs by MTT reagent based microplate reader assay. As to conditions: HCT-116, 72 h. Type of assay: functional.
Assay [6] concerns HCT-116. Description: Antiproliferative activity against human HCT-116 cells incubated for 72 hrs by MTT assay. It counts as functional, cell-based. Conditions: HCT-116, 72 h.
Assay [7] is described as follows: Antitumor activity against mouse Lewis lung carcinoma cell line implanted in C57BL/6J mouse assessed as reduction in tumor volume at 6 mg/kg administration. Type of assay: functional. Further details: scale not given: the % may be the effect or the level left.
Assay [8] relates to A549. The assay can be described thus: Antiproliferative activity against human A549 cells incubated for 72 hrs by MTT assay. It counts as functional, cell-based. As to conditions: A549, 72 h.
Assay [9] relates to HepG2. Description: Antiproliferative activity against human HepG2 cells incubated for 72 hrs by MTT assay. Type of assay: functional, cell-based. Conditions: HepG2, 72 h.
In a further assay the test system is SK-BR-3. Description: Cytotoxicity against human SK-BR-3 cells incubated for 24 hrs by CCK-8 assay. Type of assay: functional, cell-based. As to conditions: SK-BR-3, 24 h.
For another assay, the system named is SW-620. The assay can be described thus: Cytotoxicity against human SW620 cells incubated for 24 hrs by CCK-8 assay. It counts as functional, cell-based. As to conditions: SW-620, 24 h.
In assay [10] the test system is MCF7. Description: Cytotoxicity against human MCF7 cells incubated for 24 hrs by CCK-8 assay. It counts as functional, cell-based. Conditions: MCF7, 24 h.
The test system of assay [11] is HepG2. The assay can be described thus: Cytotoxicity against human HepG2 cells incubated for 24 hrs by CCK-8 assay. Type of assay: functional, cell-based. Conditions: HepG2, 24 h.
In assay [12] the test system is SW480. The assay can be described thus: Cytotoxicity against human SW480 cells incubated for 24 hrs by CCK-8 assay. It counts as functional, cell-based. Conditions: SW480, 24 h.
Assay [13] concerns HCT-116. Description: Cytotoxicity against human HCT-116 cells incubated for 24 hrs by CCK-8 assay. Type of assay: functional, cell-based. Conditions: HCT-116, 24 h.
In another assay the test system is NCI-H1299. The assay can be described thus: Cytotoxicity against human NCI-H1299 cells incubated for 24 hrs by CCK-8 assay. Type of assay: functional, cell-based. As to conditions: NCI-H1299, 24 h.
The next assay concerns NCI-H460. The assay can be described thus: Cytotoxicity against human NCI-H460 cells incubated for 24 hrs by CCK-8 assay. It counts as functional, cell-based. Conditions: NCI-H460, 24 h.
Assay [14] deals with A549. Description: Cytotoxicity against human A549 cells incubated for 24 hrs by CCK-8 assay. Type of assay: functional, cell-based. Conditions: A549, 24 h.
Assay [15] has as its system SW480. The assay can be described thus: Antitumor activity against human SW480 cells xenografted in BALB/c mouse assessed as reduction in tumor volume at 20 mg/kg,po administrated with olaparib for 15 days. Type of assay: functional. Further details: scale not given: the % may be the effect or the level left. As to conditions: time 15 day. (In xenograft studies the graft and the host belong to different species.)

For assay [16], the system named is MDA-MB-231. Description: Cytotoxicity against human MDA-MB-231 cells incubated for 24 hrs by CCK-8 assay. Type of assay: functional, cell-based. Conditions: MDA-MB-231, 24 h.
A further assay relates to MDA-MB-468. Description: Cytotoxicity against human MDA-MB-468 cells incubated for 24 hrs by CCK-8 assay. As to conditions: MDA-MB-468, 24 h. It counts as functional, cell-based.
A further assay deals with BT-549. The assay can be described thus: Cytotoxicity against human BT-549 cells incubated for 24 hrs by CCK-8 assay. Type of assay: functional, cell-based. As to conditions: BT-549, 24 h.
A further assay relates to Huh-7. The assay can be described thus: Cytotoxicity against human Huh-7 cells incubated for 24 hrs by CCK-8 assay. It counts as functional, cell-based. Conditions: Huh-7, 24 h.
The subject of assay [17] is HepG2. The assay can be described thus: Antiproliferative activity against human HepG2 cells assessed as inhibition of cell growth incubated upto 48 hrs by MTT assay. It counts as functional, cell-based. As to conditions: HepG2, 48 h.
For the next assay, the system named is U-87 MG. The assay can be described thus: Antitumor activity against human U87 cells xenografted in BALB/c mouse assessed as increase in survival time of animal at 1 mg/kg,ip administrated once every 3 days for 40 days. It counts as functional, U-87MG ATCC. As to conditions: time 40 day.
Assay [18] has as its system C6. The assay can be described thus: Antiproliferative activity against rat C6 cells assessed as inhibition of cell growth incubated for 48 hrs by MTS/PMS assay. It counts as functional, cell-based. Conditions: C6, 48 h.
In assay [19] the test system is C6. Description: Antitumor activity against rat C6 cells implanted in Wistar rat assessed as reduction in tumor volume at 100 mg/kg,IG administration once daily for 20 days. Further details: scale not given: the % may be the effect or the level left. Type of assay: functional. As to conditions: time 20 day.
For assay [20], the system named is DBTRG-05MG. Description: Antiproliferative activity against human DBTRG-05MG cells assessed as inhibition of cell growth incubated for 72 hrs by cell counting kit method. It counts as functional, cell-based. As to conditions: Homo sapiens, DBTRG-05MG, 72 h.
In assay [21] the test system is DBTRG-05MG. Description: Antiproliferative activity against human DBTRG-05MG cells assessed as inhibition of cell growth incubated for 72 hrs in presence of sodium orthovanadate by cell counting kit method. It counts as functional, cell-based.
The subject of another assay is AGS. Description: Cytotoxicity against human AGS cells incubated for 24 hrs by MTS assay. It counts as functional, cell-based.
In assay [22] the test system is A549. Description: Cytotoxicity against human A549 cells incubated for 24 hrs by MTT assay. It counts as functional, cell-based. Conditions: A549, 24 h.
Assay [23] deals with NAMALVA. The assay can be described thus: Antiproliferative activity against human NAMALVA cells assessed as inhibition of cell growth incubated upto 24 hrs by MTT assay. It counts as functional, cell-based.
Assay [24] is described as follows: Cytotoxicity against human Lung adenocarcinoma cell line. Type of assay: functional, cell-based.
Assay [25] deals with NAMALVA. Description: Antitumor activity against human NAMALVA cells xenografted in NOD/SCID mouse assessed as reduction in tumor weight at 4 mg/kg,ip administration for 19 consecutive days. It counts as functional. Further details: scale not given: the % may be the effect or the level left.

The IC50 is the concentration at which inhibition is half-maximal.

Turning to `COC(=O)C(NC(=O)CCCCC1CCSC(c2ccc(OC)cc2)S1)S[C@H](CC=C(C)C)C1=CC(=O)c2c(O)ccc(O)c2C1=O` (some centres not stated), the IC50 with MDA-MB-231 [1] was determined as 3.49 µM; in assay [2] it was 10.5 µM; with MCF7 [3], 6.45 µM; with MDA-MB-453, 6.94 µM. For the same compound, the Activity in the assay with MDA-MB-231 [4] is given as 200 mm3.
In the case of `COc1cc(C(CCC(C)C)OC)c(OC)c2c1/C(=N/O)C=C/C2=N/O` (configuration not stated), the results for the IC50 in the assay with HCT-15, in the assay on K562 and with HCT-116 [5] were 1.63 µM, 1.25 µM and 2.47 µM, respectively.
Consider `CC(C)=CC[C@H](OC(=O)C1CCOCC1)C1=CC(=O)c2c(O)ccc(O)c2C1=O`, for which the 50% inhibitory concentration (IC50) in the assay with HCT-116 [6] is > 20 µM; in the assay with A549 [8] it was 1.67 µM; with HepG2 [9], 14.8 µM. Further, in assay [7], the Activity is 63.45%.
With `CC(C)=CC[C@H](O)C1=CC(=O)c2c(O)ccc(O)c2C1=O` [ALKANNIN], the half-maximal inhibitory concentration (IC50) in the assay on SK-BR-3, in the assay with SW-620, in the assay with MCF7 [10], in the assay on HepG2 [11], in the assay on SW480 [12] and with HCT-116 [13] was 4 µM each time. Besides, the half-inhibitory concentration (IC50) with NCI-H1299, with NCI-H460, in the assay with A549 [14], in the assay with MDA-MB-231 [16], in the assay on MDA-MB-468 and in the assay with BT-549 was 4 µM throughout. Further, the IC50 with Huh-7 turned out to be 4 µM. The Activity in the assay on SW480 [15] is >50%.
As for `O=C1C=CC(=O)c2c(O)cccc21` [JUGLONE], the IC50 in the assay on HepG2 [17] stood at 20.4 µM. For the same compound, in the assay with U-87 MG, the Activity is given as 23.6%.
Take `CC(C)=CCC1=C(O)C(=O)c2ccccc2C1=O` [LAPACHOL]: in the assay on C6 [18], the IC50 was 3.7 µM. Further, the Activity with C6 [19] is recorded as 37%.
Consider `CC1=CC(=O)c2ccccc2C1=O` [MENADIONE], for which the values for the IC50 in the assay on DBTRG-05MG [20] and with DBTRG-05MG [21] were 22 µM and 13 µM, respectively.
Take `O=C1C=CC(=O)c2ccccc21` [NAPHTHOQUINONE]: in the assay with AGS, the concentration for half-maximal inhibition (IC50) came to 2.5 µM.
On to `CC(C)=CC[C@@H](O)C1=CC(=O)c2c(O)ccc(O)c2C1=O` [SHIKONIN], for which the values for the IC50 (in the assay on A549 [22]; in the assay on NAMALVA [23]; in assay [24]) were 3.52 µg/mL (≈ 12.2 µM), 193 µM and < 5 µM, respectively. The Activity in the assay on NAMALVA [25] is recorded as 50%.
